Read-outs that look alike come from different tables or passages of the source.
Test system: PSMA + PC3-PIP and PSMA-PC3-flu flank xenografts
Conditions: for Biodistribution, Blood / Biodistribution, Flu tumor / Biodistribution, Kidneys / Biodistribution, Lacrimal glands / Biodistribution, Pip (tumor) / Biodistribution, Salivary glands / Biodistribution, Spleen / Biodistribution, Stomach: without cold blocking agent
Experimental: Final compounds were purified by HPLC. […] Organs were harvested 1, 4, and 24 h post-injection (n=5 per time point).

**Q.** With `O=C([O-])CN1CCN(CC(=O)[O-])CCN(CC(=O)NCCCCC(=O)N(CCCC[C@H](NC(=O)N[C@@H](CCC(=O)O)C(=O)O)C(=O)O)Cc2ccc([125I])cc2)CCN(CC(=O)[O-])CC1.[Lu+3]` [[^125I]VK-02-90-Lu] as the molecule, how does the “Biodistribution, Blood” value (1 H) read?
**A.** The value was 1.2 ± 0.4 % injected dose/g.

**Q.** What about the “Biodistribution, Flu tumor” value (1 H) of the same molecule?
**A.** The value was 0.9 ± 0.3 % injected dose/g.

**Q.** And the “Biodistribution, Kidneys” value (1 H)?
**A.** The value was 180 ± 36 % injected dose/g.

**Q.** And the “Biodistribution, Lacrimal glands” value (1 H)?
**A.** Its value is 4.1 ± 1.3 % injected dose/g.

**Q.** And the “Biodistribution, Pip (tumor)” value (1 H)?
**A.** Its value is 51 ± 8.5 % injected dose/g.

**Q.** And the “Biodistribution, Salivary glands” value (1 H)?
**A.** The value was 1.0 ± 0.3 % injected dose/g.

**Q.** And the “Biodistribution, Spleen” value (1 H)?
**A.** Its value is 7.4 ± 2.6 % injected dose/g.

**Q.** What about the “Biodistribution, Stomach” value (1 H) of the same molecule?
**A.** Its value is 0.7 ± 0.4 % injected dose/g.

**Q.** And the “Biodistribution, Blood” value (4 H)?
**A.** The value was 0.06 ± 0.06 % injected dose/g.

**Q.** And the “Biodistribution, Flu tumor” value (4 H)?
**A.** The value was 0.3 ± 0.5 % injected dose/g.

**Q.** What about the “Biodistribution, Kidneys” value (4 H) of the same molecule?
**A.** The value was 18.2 ± 4.9 % injected dose/g.

**Q.** What about the “Biodistribution, Lacrimal glands” value (4 H) of the same molecule?
**A.** Its value is 0.3 ± 0.1 % injected dose/g.

**Q.** And the “Biodistribution, Pip (tumor)” value (4 H)?
**A.** Its value is 27.8 ± 17 % injected dose/g.

**Q.** What about the “Biodistribution, Salivary glands” value (4 H) of the same molecule?
**A.** Its value is 0.1 ± 0.05 % injected dose/g.

**Q.** What about the “Biodistribution, Spleen” value (4 H) of the same molecule?
**A.** Its value is 0.6 ± 0.2 % injected dose/g.

**Q.** What about the “Biodistribution, Stomach” value (4 H) of the same molecule?
**A.** The value was 0.1 ± 0.1 % injected dose/g.

**Q.** And the “Biodistribution, Blood” value (24 H)?
**A.** The value was 0.1 ± 0.01 % injected dose/g.

**Q.** And the “Biodistribution, Flu tumor” value (24 H)?
**A.** Its value is 0.03 ± 0.01 % injected dose/g.

**Q.** What about the “Biodistribution, Kidneys” value (24 H) of the same molecule?
**A.** Its value is 3.3 ± 1.1 % injected dose/g.

**Q.** What about the “Biodistribution, Lacrimal glands” value (24 H) of the same molecule?
**A.** Its value is 0.06 ± 0.03 % injected dose/g.

**Q.** What about the “Biodistribution, Pip (tumor)” value (24 H) of the same molecule?
**A.** The value was 24.0 ± 6.2 % injected dose/g.

**Q.** What about the “Biodistribution, Salivary glands” value (24 H) of the same molecule?
**A.** Its value is 0.03 ± 0.01 % injected dose/g.

**Q.** What about the “Biodistribution, Spleen” value (24 H) of the same molecule?
**A.** The value was 0.1 ± 0.06 % injected dose/g.

**Q.** And the “Biodistribution, Stomach” value (24 H)?
**A.** Its value is 0.04 ± 0.01 % injected dose/g.

**Q.** And the “clearance from the spleen, salivary glands, lacrimal glands and kidneys” value (compared with [^125I]VK-02-90)?
**A.** Its value is “faster clearance”.
